Measured values reported in patent publication EP0987275B1, “Molecules that home to a selected organ or tissue in vivo” (LA JOLLA CANCER RESEARCH FOUNDATION, priority 1995, dated 2008).
Where no end group is shown, it is not given here.

Assays:
brain = test: In vivo panning of phage peptide display libraries, brain as the selected organ (kidney control); set-up: species or system mice; conditions: phage recovered from brain; for (% PHAGE): % of the 73 clones sequenced; for # PHAGE DISPLAYING SAME A.A. SEQUENCE: second and third rounds of in vivo panning, 73 cloned phage sequenced
Protocol: Phage display libraries were constructed using the fuse 5 vector as described by Koivunen et al. (supra, 1995; see, also, Koivunen et al. Meth. Enzymol. 245:346-369 (1994b), which is incorporated herein by reference). Six libraries encoding peptides designated CX5C (SEQ ID NO: 36), CX6C (SEQ ID NO: 37), CX7C (SEQ ID NO: 38), CX9 (SEQ ID NO: 39), X2CX14CX2 (SEQ ID NO: 40) and X2CX18 (SEQ ID NO: 41) were prepared, where "C" indicates cysteine and "XN" indicates the given number of individually selected amino acids. These libraries can display cyclic peptides when at least two cysteine residues are present in the peptide.
Oligonucleotides were constructed such that "C" was encoded by the codon TGT and "XN" was encoded by NNK, where "N" is equal molar mixtures of A, C, G and T, and where "K" is equal molar mixtures of G and T. Thus, the peptide represented by CX5C (SEQ ID NO: 36) can be represented by an oligonucleotide having the sequence TGT(NNK)5TGT (SEQ ID NO: 42). Oligonucleotides were made double stranded by 3 cycles of PCR amplification, purified and ligated to the nucleic acid encoding the gene III protein in the fuse 5 vector such that, upon expression, the peptide is present as a fusion protein at the N-terminus of the gene III protein.
The vectors were transfected by electroporation into MC1061 cells. Bacteria were cultured for 24 hr in the presence of 20 µg/ml tetracycline, then phage were collected from the supernatant by precipitation twice using polyethylene glycol. Each library contained about 5 x 10^9 to 5 x 10^14 transducing units (TU; individual recombinant phage).
(§1) A mixture of phage libraries containing 1 x 10^14 TU was diluted in 200 µl DMEM and injected into the tail vein of anesthetized BALB\c mice (2 month old females; Jackson Laboratories; Bar Harbor ME); Avertin™ (0.015 ml/g) was used as anesthetic (see Pasqualini and Ruoslahti, supra, 1996). After 1-4 minutes, mice were snap frozen in liquid nitrogen. To recover the phage, carcasses were partially thawed at room temperature for 1 hr, organs were collected and weighed, then were ground in 1 ml DMEM-PI (DMEM containing protease inhibitors (PI); phenylmethylsulfonyl fluoride (PMSF; 1 mM), aprotinin (20 µg/ml), leupeptin (1 µg/ml)).
(§2) Organ samples were washed 3 times with ice cold DMEM-PI containing 1% bovine serum albumin (BSA), then directly incubated with 1 ml K91-kan bacteria for 1 hr. Ten ml NZY medium containing […] tetracycline (NZY/tet) was added to the bacterial culture, the mixture was incubated in a 37°C shaker for 1 hr, then 200 µl aliquots were plated in agar plates containing 40 µg/ml tetracycline (tet/agar).
(§3) Individual colonies containing phage recovered from brain or kidney were grown for 16 hr in 5 ml NZY/tet. The bacterial cultures obtained from the individual colonies were pooled and the phage were purified and re-injected into mice as described above for a second round of in vivo panning. A third round of panning also was performed. Phage DNA was purified from individual bacterial colonies obtained from the second and the third round of in vivo panning and the DNA sequences encoding the peptides expressed by selected phage were determined (see Koivunen et al., supra, 1994b).
Three rounds of in vivo panning in mice were performed. Kidney was used as a control organ. Mice were injected with two different mixtures of phage libraries. The first mixture contained libraries encoding CX9 (SEQ ID NO: 39), CX5C (SEQ ID NO: 36), CX6C (SEQ ID NO: 37) and CX7C (SEQ ID NO: 38) peptides (CX5-7/CX9 mixture; SEQ ID NOS: 36-39). The second mixture contained libraries encoding X2CX14CX2 (SEQ ID NO: 40) and X2CX18 (SEQ ID NO: 41) peptides (X2CX18/X2CX14CX2 mixture; SEQ ID NOS: 40 and 41).
The phage library mixtures were administered to mice via tail vein injection. Phage input was […] of the CX5-7/CX9 (SEQ ID NOS: 36-39) mixture or 1 x 10^14 TU of the X2CX18/X2CX14CX2 (SEQ ID NOS: 40 and 41) mixture. […]

kidney = test: In vivo panning of phage peptide display libraries, kidney as the selected organ (brain control); set-up: species or system mice; conditions: phage recovered from kidney; for (% PHAGE): % of the 48 clones sequenced; for # PHAGE DISPLAYING SAME A.A. SEQUENCE: 48 cloned phage sequenced
Protocol: as §1, §2, §3
The same methodology used to isolate phage expressing brain homing peptides was used to isolate phage expressing peptides that home to kidney. In these experiments, brain was used as the control organ. A mixture of the CX5C (SEQ ID NO: 36) and the CX6C (SEQ ID NO: 37) libraries was administered as described above. Homing of phage to the kidney was obtained and an approximately 3x to 7x enrichment of phage homing to kidney was observed following a second round of in vivo panning.
The amino acid sequences were determined for the inserts in 48 cloned phage that homed to kidney. The peptides expressed by these phage were represented by two predominant sequences, CLPVASC (SEQ ID NO: 21; 46% of the clones sequenced) and CGAREMC (SEQ ID NO: 22; 17% of the clones; see Table 2). In addition, the peptide CKGRSSAC (SEQ ID NO: 23) appeared three times and three other peptides were present twice each.

[1] = system: B16B15b mouse melanoma cells; test: In vivo panning in mice bearing an implanted mouse melanoma tumor; set-up: species or system nude mice; conditions: phage recovered from B16B15b tumors; 89 cloned phage sequenced
Protocol: Mice bearing a melanoma were produced by implantation of B16B15b mouse melanoma cells, which produce highly vascularized tumors. B16B15b mouse melanoma cells were injected subcutaneously into the mammary fat pad of nude mice (2 months old) and tumors were allowed to grow until the diameter was about 1 cm. In vivo panning was performed as disclosed above. Approximately 1 x 10^12 transducing units of phage expressing the CX5C (SEQ ID NO: 36), CX6C (SEQ ID NO: 37) or […] library were injected, iv, and allowed to circulate for 4 min. Mice then were snap frozen in liquid nitrogen while under anesthesia, tumor tissue and brain (control organ) were removed, and phage were isolated as described above. Three rounds of in vivo panning were performed.
The amino acid sequences were determined for the inserts in 89 cloned phage recovered from the B16B15b tumors. The peptides expressed by these phage were represented by two predominant sequences, CLSGSLSC (SEQ ID NO: 55; 52% of the clones sequenced) and WGTGLC (SEQ ID NO: 52; 25% of the clones; see Table 4).

Row | Substance | (% PHAGE) (brain) [%] | # PHAGE DISPLAYING SAME A.A. SEQUENCE (brain) | (% PHAGE) (kidney) [%] | # PHAGE DISPLAYING SAME A.A. SEQUENCE (kidney) | also measured
1 | CANAQSHC (displayed on phage) [peptide from phage recovered from brain] | 1.4 | 1 |  |  | 
2 | CETLPAC (displayed on phage) [peptide from phage recovered from brain] | 1.4 | 1 |  |  | 
3 | CFVGHDLC (displayed on phage) [peptide from phage recovered from kidney] |  |  | 2.1 | 1 | 
4 | CGNPSYRC (displayed on phage) [peptide from phage recovered from brain] | 1.4 | 1 |  |  | 
5 | CGRSLDAC (displayed on phage) [peptide from phage recovered from brain] | 1.4 | 1 |  |  | 
6 | CGVRLGC (displayed on phage) [peptide from phage recovered from brain] | 4.1 | 3 |  |  | 
7 | CIEGVLGGC (cysteine pairing not given here; also: displayed on phage) [peptide from phage recovered from mouse B16B15b melanoma] |  |  |  |  | # clones [1]: 2; % of total phage [1]: 2%
8 | CKDWGRIC (displayed on phage) [peptide from phage recovered from brain] | 2.8 | 2 |  |  | 
9 | CKLLSGVC (displayed on phage) [peptide from phage recovered from kidney] |  |  | 2.1 | 1 | 
10 | CKLMGEC (displayed on phage) [peptide from phage recovered from kidney] |  |  | 2.1 | 1 | 
11 | CLDWGRIC (displayed on phage) [peptide from phage recovered from brain] | 2.8 | 2 |  |  | 
12 | CLGRSSVC (displayed on phage) [peptide from phage recovered from kidney] |  |  | 4.2 | 2 | 
13 | CLMGVHC (displayed on phage) [peptide from phage recovered from kidney] |  |  | 2.1 | 1 | 
14 | CMGRWRLC (displayed on phage) [peptide from phage recovered from kidney] |  |  | 2.1 | 1 | 
15 | CNSRLQLRC (displayed on phage) [peptide from phage recovered from brain] | 5.5 | 4 |  |  | 
16 | CRCLNVC (displayed on phage) [peptide from phage recovered from kidney] |  |  | 2.1 | 1 | 
17 | CRHWFDVVC (displayed on phage) [peptide from phage recovered from brain] | 1.4 | 1 |  |  | 
18 | CRRFQDC (displayed on phage) [peptide from phage recovered from kidney] |  |  | 2.1 | 1 | 
19 | CRTGTLFC (displayed on phage) [peptide from phage recovered from brain] | 1.4 | 1 |  |  | 
20 | CSSTMRC (cysteine pairing not given here; also: displayed on phage) [peptide from phage recovered from mouse B16B15b melanoma] |  |  |  |  | # clones [1]: 2; % of total phage [1]: 2%
21 | CTRITESC (displayed on phage) [peptide from phage recovered from brain] | 2.8 | 2 |  |  | 
22 | CTSPGGSC (displayed on phage) [peptide from phage recovered from kidney] |  |  | 4.2 | 2 | 
23 | CVAWLNC (displayed on phage) [peptide from phage recovered from kidney] |  |  | 2.1 | 1 | 
24 | CVGECGGC (displayed on phage) [peptide from phage recovered from kidney] |  |  | 2.1 | 1 | 
25 | CVLRGGRC (displayed on phage) [peptide from phage recovered from brain] | 6.8 | 5 |  |  | 
26 | CWARAQGC (displayed on phage) [peptide from phage recovered from kidney] |  |  | 4.2 | 2 | 
27 | LNCDYQGTNPATSVSVPCTV (displayed on phage) [peptide from phage recovered from brain] | 1.4 | 1 |  |  | 
28 | YPCGGEAVAGVSSVRTMCSE (displayed on phage) [peptide from phage recovered from brain] | 1.4 | 1 |  |  | 
